Measurements from publication PMC12155096 (International Journal of Molecular Sciences, 2025).
Like-named read-outs stand apart in the source and are kept apart here.

What was measured:
[1] = molecular target: T1, human CYP2C19 (Homo sapiens, UniProt P33261)
[2] = molecular target: T2, human CYP1A2 (Homo sapiens, UniProt P05177)
T2 sequence (P05177 1-516): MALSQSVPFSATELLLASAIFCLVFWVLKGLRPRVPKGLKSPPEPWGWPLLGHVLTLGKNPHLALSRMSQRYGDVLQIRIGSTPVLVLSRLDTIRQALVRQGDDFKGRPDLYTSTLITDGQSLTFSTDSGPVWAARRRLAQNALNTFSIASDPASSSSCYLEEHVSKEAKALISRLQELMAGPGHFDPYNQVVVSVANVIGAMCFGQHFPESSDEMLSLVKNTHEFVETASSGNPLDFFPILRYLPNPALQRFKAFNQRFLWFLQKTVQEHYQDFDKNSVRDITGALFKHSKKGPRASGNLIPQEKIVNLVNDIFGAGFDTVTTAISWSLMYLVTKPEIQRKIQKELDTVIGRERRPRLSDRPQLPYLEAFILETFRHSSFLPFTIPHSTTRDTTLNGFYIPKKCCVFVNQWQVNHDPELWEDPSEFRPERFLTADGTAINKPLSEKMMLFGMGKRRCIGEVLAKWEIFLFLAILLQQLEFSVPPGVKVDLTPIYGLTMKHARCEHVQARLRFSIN

[3] = molecular target: human CYP2D6 (Homo sapiens, UniProt P10635)
[4] = molecular target: T3, human CYP2C9 (Homo sapiens, UniProt P11712)
[5] = molecular target: CYP3A4 (Homo sapiens, UniProt P08684); test: biochemical
[6] = molecular target: T1, human CYP2C19; test: biochemical
[7] = molecular target: T3, human CYP2C9; test: biochemical
[8] = CYP3A4 AC50 (half-maximal activity concentration)
[9] = CYP2C19 AC50 (half-maximal activity concentration)
[10] = CYP2C9 AC50 (half-maximal activity concentration)

Sequence of CYP3A4 (P08684 whole entry): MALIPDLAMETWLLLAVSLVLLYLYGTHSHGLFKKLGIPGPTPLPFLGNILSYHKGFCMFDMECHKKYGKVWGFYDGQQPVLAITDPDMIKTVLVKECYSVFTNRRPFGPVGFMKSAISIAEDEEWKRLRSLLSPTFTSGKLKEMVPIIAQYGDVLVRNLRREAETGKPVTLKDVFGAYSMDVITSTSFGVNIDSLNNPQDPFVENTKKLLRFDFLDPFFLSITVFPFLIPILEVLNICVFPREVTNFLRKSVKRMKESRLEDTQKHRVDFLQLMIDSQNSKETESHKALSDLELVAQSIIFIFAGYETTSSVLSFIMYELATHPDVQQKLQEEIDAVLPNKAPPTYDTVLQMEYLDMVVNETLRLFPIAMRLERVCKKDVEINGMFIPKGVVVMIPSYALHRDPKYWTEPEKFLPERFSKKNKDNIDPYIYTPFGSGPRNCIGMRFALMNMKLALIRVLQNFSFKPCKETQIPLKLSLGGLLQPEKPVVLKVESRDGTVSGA
T1 sequence (P33261 whole entry): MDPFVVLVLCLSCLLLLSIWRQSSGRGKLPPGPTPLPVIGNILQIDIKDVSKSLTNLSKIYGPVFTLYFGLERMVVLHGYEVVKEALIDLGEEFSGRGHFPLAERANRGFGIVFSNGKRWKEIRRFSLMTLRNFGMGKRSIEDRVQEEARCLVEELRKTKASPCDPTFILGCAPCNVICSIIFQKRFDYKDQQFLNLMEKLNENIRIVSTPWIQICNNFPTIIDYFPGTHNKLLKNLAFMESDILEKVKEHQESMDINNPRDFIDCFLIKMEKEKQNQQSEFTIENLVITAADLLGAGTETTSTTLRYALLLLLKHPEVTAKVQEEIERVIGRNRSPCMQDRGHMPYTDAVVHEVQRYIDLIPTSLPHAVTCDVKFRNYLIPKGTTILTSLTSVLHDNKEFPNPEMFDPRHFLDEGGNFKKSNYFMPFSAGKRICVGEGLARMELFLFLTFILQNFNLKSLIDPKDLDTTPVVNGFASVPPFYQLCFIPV
Sequence of human CYP2D6 (P10635 whole entry): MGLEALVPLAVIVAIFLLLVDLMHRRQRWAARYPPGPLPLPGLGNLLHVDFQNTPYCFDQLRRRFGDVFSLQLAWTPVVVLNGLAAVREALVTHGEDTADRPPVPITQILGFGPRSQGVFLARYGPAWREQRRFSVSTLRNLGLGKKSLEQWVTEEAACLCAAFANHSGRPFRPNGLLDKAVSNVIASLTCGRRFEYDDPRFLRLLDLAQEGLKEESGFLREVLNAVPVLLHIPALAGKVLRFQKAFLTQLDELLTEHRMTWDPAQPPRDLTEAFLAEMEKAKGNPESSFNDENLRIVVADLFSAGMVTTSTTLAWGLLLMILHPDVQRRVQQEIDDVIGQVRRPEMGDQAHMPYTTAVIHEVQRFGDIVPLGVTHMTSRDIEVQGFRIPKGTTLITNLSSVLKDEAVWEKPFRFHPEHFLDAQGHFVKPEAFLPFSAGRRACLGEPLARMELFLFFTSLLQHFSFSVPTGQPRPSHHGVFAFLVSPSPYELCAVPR
T3 sequence (P11712 whole entry): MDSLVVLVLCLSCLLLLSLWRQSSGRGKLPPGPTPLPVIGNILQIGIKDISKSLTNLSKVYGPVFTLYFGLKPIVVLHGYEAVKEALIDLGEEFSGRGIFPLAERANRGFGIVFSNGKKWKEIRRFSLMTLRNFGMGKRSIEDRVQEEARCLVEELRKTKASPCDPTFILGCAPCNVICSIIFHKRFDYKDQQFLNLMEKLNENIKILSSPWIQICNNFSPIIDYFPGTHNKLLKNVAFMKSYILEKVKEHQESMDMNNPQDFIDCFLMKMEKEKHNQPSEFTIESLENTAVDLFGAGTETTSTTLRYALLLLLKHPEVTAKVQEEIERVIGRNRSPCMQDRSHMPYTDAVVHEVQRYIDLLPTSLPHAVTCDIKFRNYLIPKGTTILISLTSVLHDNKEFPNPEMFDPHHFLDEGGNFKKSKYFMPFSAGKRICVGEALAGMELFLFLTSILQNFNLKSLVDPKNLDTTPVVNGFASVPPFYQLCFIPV

Clc1cc(Cl)c(-c2c(Cl)c(Cl)cc(Cl)c2Cl)cc1Cl
CYP2C19 AC50 (half-maximal activity concentration) [1]: Inconclusive activator
CYP1A2 AC50 (half-maximal activity concentration) [2]: Inactive
CYP2D6 AC50 (half-maximal activity concentration) [3]: Inactive
CYP2C9 AC50 (half-maximal activity concentration) [4]: Inactive
AC50 [5, 8]: 24.9 µM

O=C(O)c1cccc(C(=O)O)c1 [1,3-Benzenedicarboxylic acid]
CYP2C19 AC50 (half-maximal activity concentration) [1]: Inactive
CYP1A2 AC50 (half-maximal activity concentration) [2]: Inactive
CYP2D6 AC50 (half-maximal activity concentration) [3]: Inactive
CYP2C9 AC50 (half-maximal activity concentration) [4]: Inconclusive activator
AC50 [5, 8]: 9.6 µM

CC(=O)OC(c1ccccc1)C(Cl)(Cl)Cl (stereo not drawn) [2,2,2-Trichloro-1-phenylethyl acetate]
AC50 [6]: 35.6 µM
CYP1A2 AC50 (half-maximal activity concentration) [2]: Inactive
CYP2D6 AC50 (half-maximal activity concentration) [3]: Inactive
AC50 [7]: 71.3 µM
AC50 [5]: 23.9 µM

CCCCC(C=O)CC (stereo not drawn) [2-Ethylhexanal]
CYP2C19 AC50 (half-maximal activity concentration) [1]: Inactive
CYP1A2 AC50 (half-maximal activity concentration) [2]: Inactive
CYP2D6 AC50 (half-maximal activity concentration) [3]: Inactive
CYP2C9 AC50 (half-maximal activity concentration) [4]: Inactive
AC50 [5]: 45.1 µM

O=C(O)c1cccc(Oc2ccccc2)c1 [3-Phenoxybenzoic acid]
CYP2C19 AC50 (half-maximal activity concentration) [1]: Inactive
CYP1A2 AC50 (half-maximal activity concentration) [2]: Inactive
CYP2D6 AC50 (half-maximal activity concentration) [3]: Inactive
CYP2C9 AC50 (half-maximal activity concentration) [4]: Inactive
AC50 [5]: 35.6 µM

O=C1OC2(c3ccccc31)c1ccc(O)c(Br)c1Oc1c2ccc(O)c1Br [4',5'-Dibromofluorescein]
AC50 [6]: 53.7 µM
CYP1A2 AC50 (half-maximal activity concentration) [2]: Inconclusive inhibitor
CYP2D6 AC50 (half-maximal activity concentration) [3]: Inactive
AC50 [7]: 46.2 µM
AC50 [5]: 27.2 µM

NNS(=O)(=O)c1ccc(Oc2ccc(S(=O)(=O)NN)cc2)cc1 [4,4'-Oxybis(benzenesulfonhydrazide)]
AC50 [6]: 16.8 µM
CYP1A2 AC50 (half-maximal activity concentration) [2]: Inactive
CYP2D6 AC50 (half-maximal activity concentration) [3]: Inconclusive inhibitor
AC50 [7]: 6 µM
AC50 [5]: 7.84 µM

C[C@]12CCC(=O)C=C1CC[C@@H]1[C@@H]2CC[C@]2(C)C(=O)CC[C@@H]12 [4-Androstene-3,17-dione]
AC50 [6, 9]: 33.3 µM
CYP1A2 AC50 (half-maximal activity concentration) [2]: Inactive
CYP2D6 AC50 (half-maximal activity concentration) [3]: Inconclusive inhibitor
AC50 [7, 10]: 71.9 µM
AC50 [5, 8]: 8.36 µM

Cc1ccc(C(=O)O)cc1[N+](=O)[O-] [4-Methyl-3-nitrobenzoic acid]
CYP2C19 AC50 (half-maximal activity concentration) [1]: Inactive
CYP1A2 AC50 (half-maximal activity concentration) [2]: Inconclusive inhibitor
CYP2D6 AC50 (half-maximal activity concentration) [3]: Inactive
CYP2C9 AC50 (half-maximal activity concentration) [4]: Inactive
AC50 [5, 8]: 35.3 µM

CCOCN(C(=O)CCl)c1c(C)cccc1CC [Acetochlor]
AC50 [6, 9]: 9.51 µM
CYP1A2 AC50 (half-maximal activity concentration) [2]: Inconclusive inhibitor
CYP2D6 AC50 (half-maximal activity concentration) [3]: Inactive
AC50 [7, 10]: 31.2 µM
AC50 [5, 8]: 8.35 µM

COC(=O)C(C)N(C(=O)Cc1ccccc1)c1c(C)cccc1C (stereo not drawn) [Benalaxyl]
AC50 [6, 9]: 5.23 µM
CYP1A2 AC50 (half-maximal activity concentration) [2]: Inactive
CYP2D6 AC50 (half-maximal activity concentration) [3]: Inconclusive inhibitor
AC50 [7, 10]: 22.6 µM
AC50 [5, 8]: 4.54 µM

NS(=O)(=O)c1ccc(NCc2ccccc2)cc1 [Benzylsulfamide]
AC50 [6]: 3.82 ± 1.44 µM
CYP1A2 AC50 (half-maximal activity concentration) [2]: Inactive
CYP2D6 AC50 (half-maximal activity concentration) [3]: Inactive
AC50 [7]: 18.6 ± 5.47 µM
AC50 [5]: 7.8 ± 0.9 µM

COc1cc(Nc2c(C#N)cnc3cc(OCCCN4CCN(C)CC4)c(OC)cc23)c(Cl)cc1Cl [Bosutinib]
CYP2C19 AC50 (half-maximal activity concentration) [1]: Inactive
CYP1A2 AC50 (half-maximal activity concentration) [2]: Inactive
CYP2D6 AC50 (half-maximal activity concentration) [3]: Inconclusive inhibitor
CYP2C9 AC50 (half-maximal activity concentration) [4]: Inactive
AC50 [5, 8]: 3.48 µM

C[C@]12CCC(=O)C=C1C=C[C@@H]1[C@@H]2CC[C@@]2(C)[C@H]1CC[C@@]21CCC(=O)O1 [Canrenone]
AC50 [6, 9]: 1.67 µM
CYP1A2 AC50 (half-maximal activity concentration) [2]: Inconclusive inhibitor
CYP2D6 AC50 (half-maximal activity concentration) [3]: Inactive
AC50 [7, 10]: 32.2 µM
AC50 [5, 8]: 3.48 µM

CC(=O)O[C@]1(C(C)=O)CC[C@H]2[C@@H]3C=C(Cl)C4=CC(=O)CC[C@]4(C)[C@H]3CC[C@@]21C [Chlormadinone acetate]
AC50 [6, 9]: 5.67 µM
CYP1A2 AC50 (half-maximal activity concentration) [2]: Inactive
CYP2D6 AC50 (half-maximal activity concentration) [3]: Inactive
AC50 [7, 10]: 14.9 µM
AC50 [5, 8]: 2.05 µM

CC(=O)O[C@H]1CC[C@@]2(C)C(=CC[C@@H]3[C@@H]2CC[C@]2(C)C(=O)CC[C@@H]32)C1 [Dehydroepiandrosterone acetate]
AC50 [6, 9]: 28.4 µM
CYP1A2 AC50 (half-maximal activity concentration) [2]: Inconclusive inhibitor
CYP2D6 AC50 (half-maximal activity concentration) [3]: Inactive
AC50 [7, 10]: 28.4 µM
AC50 [5, 8]: 6.03 µM

CC1(C)[C@H](C(=O)O[C@H](C#N)c2cccc(Oc3ccccc3)c2)[C@@H]1C=C(Br)Br [Deltamethrin]
AC50 [6, 9]: 8.8 µM
CYP1A2 AC50 (half-maximal activity concentration) [2]: Inconclusive inhibitor
CYP2D6 AC50 (half-maximal activity concentration) [3]: Inconclusive inhibitor
AC50 [7, 10]: 3.68 µM
AC50 [5, 8]: 9.13 µM

CC(=O)OCC(=O)[C@H]1CC[C@H]2[C@@H]3CCC4=CC(=O)CC[C@]4(C)[C@H]3CC[C@]12C [Deoxycorticosterone acetate]
AC50 [6, 9]: 8.43 µM
CYP1A2 AC50 (half-maximal activity concentration) [2]: Inactive
CYP2D6 AC50 (half-maximal activity concentration) [3]: Inconclusive inhibitor
AC50 [7, 10]: 5.67 µM
AC50 [5, 8]: 4.07 µM

O=S(=O)(c1ccccc1)c1ccccc1 [Diphenylsulfone]
AC50 [6, 9]: 41.1 µM
CYP1A2 AC50 (half-maximal activity concentration) [2]: Inactive
CYP2D6 AC50 (half-maximal activity concentration) [3]: Inactive
AC50 [7, 10]: 7.39 µM
AC50 [5, 8]: 28.4 µM

CC(=O)[C@H]1CC[C@H]2[C@@H]3C=CC4=CC(=O)CC[C@@]4(C)[C@@H]3CC[C@]12C [Dydrogesterone]
AC50 [6, 9]: 5.49 µM
CYP1A2 AC50 (half-maximal activity concentration) [2]: Inactive
CYP2D6 AC50 (half-maximal activity concentration) [3]: Inconclusive inhibitor
AC50 [7, 10]: 32.4 µM
AC50 [5, 8]: 4.36 µM

C#C[C@]1(OC(C)=O)CC[C@H]2[C@@H]3CCC4=C[C@@H](OC(C)=O)CC[C@@H]4[C@H]3CC[C@@]21C [Ethynodiol diacetate]
AC50 [6, 9]: 23.7 µM
CYP1A2 AC50 (half-maximal activity concentration) [2]: Inactive
CYP2D6 AC50 (half-maximal activity concentration) [3]: Inactive
AC50 [7, 10]: 13.3 µM
AC50 [5, 8]: 3.91 µM

COC(=O)C(C)N(C(=O)c1ccco1)c1c(C)cccc1C (stereo not drawn) [Furalaxyl]
AC50 [6, 9]: 13.4 µM
CYP1A2 AC50 (half-maximal activity concentration) [2]: Inconclusive inhibitor
CYP2D6 AC50 (half-maximal activity concentration) [3]: Inactive
AC50 [7, 10]: 29.5 µM
AC50 [5, 8]: 14.7 µM

CC(=O)O[C@]1(C(C)=O)CC[C@H]2[C@@H]3C=C(C)C4=CC(=O)CC[C@]4(C)[C@H]3CC[C@@]21C [Megestrol acetate]
AC50 [6, 9]: 7.2 µM
CYP1A2 AC50 (half-maximal activity concentration) [2]: Inactive
CYP2D6 AC50 (half-maximal activity concentration) [3]: Inactive
AC50 [7, 10]: 8.11 µM
AC50 [5, 8]: 2.16 µM

C=C1C[C@H]2[C@@H]3C=C(C)C4=CC(=O)CC[C@]4(C)[C@H]3CC[C@]2(C)[C@@]1(OC(C)=O)C(C)=O [Melengestrol acetate]
AC50 [6, 9]: 20.3 µM
CYP1A2 AC50 (half-maximal activity concentration) [2]: Inactive
CYP2D6 AC50 (half-maximal activity concentration) [3]: Inactive
AC50 [7, 10]: 16.8 µM
AC50 [5, 8]: 4.92 µM

CCCCCCCCOc1ccc(C(=O)c2ccccc2)c(O)c1 [Octabenzone]
AC50 [6, 9]: 53.3 µM
CYP1A2 AC50 (half-maximal activity concentration) [2]: Inconclusive inhibitor
CYP2D6 AC50 (half-maximal activity concentration) [3]: Inactive
AC50 [7, 10]: 13.8 µM
AC50 [5, 8]: 26.2 µM

O=C(O)Cc1cc(I)c(Oc2cc(I)c(O)c(I)c2)c(I)c1 [Tetrac]
CYP2C19 AC50 (half-maximal activity concentration) [1]: Inactive
CYP1A2 AC50 (half-maximal activity concentration) [2]: Inactive
CYP2D6 AC50 (half-maximal activity concentration) [3]: Inactive
AC50 [7]: 46.5 µM
AC50 [5]: 9.83 µM

CC(C)N(C(=O)SCC(Cl)=C(Cl)Cl)C(C)C [Tri-allate]
AC50 [6, 9]: 10.3 µM
CYP1A2 AC50 (half-maximal activity concentration) [2]: Inconclusive inhibitor
CYP2D6 AC50 (half-maximal activity concentration) [3]: Inactive
AC50 [7, 10]: 33 µM
AC50 [5, 8]: 2.47 µM

O=P(c1ccccc1)(c1ccccc1)c1ccccc1 [Triphenylphosphine oxide]
AC50 [6]: 7.22 ± 1.65 µM
CYP1A2 AC50 (half-maximal activity concentration) ([2]; mean ± standard deviation from three experiments, words = activity call): Inconclusive inhibitor
CYP2D6 AC50 (half-maximal activity concentration) [3]: Inactive
AC50 [7]: 6.87 ± 0.95 µM
AC50 [5]: 37 ± 2.51 µM

ClC(Cl)=C(c1ccc(Cl)cc1)c1ccccc1Cl [o,p'-DDE]
AC50 [6, 9]: 6.84 µM
CYP1A2 AC50 (half-maximal activity concentration) [2]: Inactive
CYP2D6 AC50 (half-maximal activity concentration) [3]: Inactive
AC50 [7, 10]: 21 µM
AC50 [5, 8]: 22.9 µM

O=C(O)C(c1ccc(Cl)cc1)c1ccc(Cl)cc1 [p,p'-DDA]
AC50 [6, 9]: 24.5 µM
CYP1A2 AC50 (half-maximal activity concentration) [2]: Inactive
CYP2D6 AC50 (half-maximal activity concentration) [3]: Inactive
AC50 [7, 10]: 15.4 µM
AC50 [5, 8]: 68.4 µM
